The results in this text go back to patent US7105718B2, “Compositions and methods for regulating metabolism in plants” (The Regents of the University of Colorado, priority 2000, dated 2006).

“Also recorded” adds a separate entry of the source.

Assay [1] relates to wild type strains of algae. Put plainly: Light sensitivity of wild type algae in the presence of the herbicide. The format is cell-based, Chlamydomonas reinhardtii. The settings on record: in the presence of norflurazon.
The subject of assay [2] is cell wall UCP. Nature of the assay: Flow cytometry of non-permeabilized cells stained with anti-UCP2 antibody for cell wall UCP. The class given is cell-based, Chlamydomonas reinhardtii. Conditions: wild type strains of C. reinhardtii treated with norflurazon; FIG. 3. How it is done:
Wild type (CC124, mt−) and cell wall-less (CC, mt+) C. reinhardtii were tested for the presence of UCP by flow cytometry. Non-permeabilized cells were stained with anti-UCP2 antibody (Santa Cruz Technologies). Cells were prepared for staining with goat anti-UCP2 antibody (Santa Cruz Pharmaceuticals) followed by fluorescein conjugated anti-rabbit or goat outer step antibodies, respectively. Data were acquired on a Coulter Elite Epics flow cytometer (Coulter, Hialeah, Fla.) and analyzed with CellQuest software, (Becton Dickinson, San Jose, Calif.). Cells were stained for intracellular peroxide using 6-carboxy-2′-7′-dichlorodihydrofluorescein diacetate (DCF-DA, Molecular Probes, Eugene, Oreg.). Briefly, cells were incubated with DCF-DA for 20 minutes, washed twice in PBS containing 5% fetal calf serum and analyzed flow cytometrically. Mitochondrial membrane potential was assessed using Mitotracker Red (CM-H2XROS, Molecular Probes, Eugene, Oreg.). The cells were resuspended in cold, or room temperature, PBS containing 13% fetal calf serum, 0.5 micromolar Mitotracker Red dye was then added to the suspension. The cells were incubated at 37° C. for 20 minutes, pelleted, and resuspended in prewarmed medium for analysis. […] Each sample population was classified for cell size (forward scatter) and complexity (side scatter), gated on a population of interest and evaluated using 40,000 cells.
In general terms: In flow cytometry, cells or beads pass a laser one at a time.

For the compound `CNc1cnn(-c2cccc(C(F)(F)F)c2)c(=O)c1Cl` [norflurazon], the “light sensitivity of algae” value in assay [1] was “made light-sensitive”. Also, in assay [2], the “cell wall expression of UCP” value was “upregulates cell wall expression of UCP; also recorded: Increased levels of uncoupling protein”.
